# Patent EP0309422A2, “New amidino tricycle derivatives” (ISTITUTO DE ANGELI S.p.A., priority 1987, dated 1989)
# Target: T1, muscarinic receptors of the cerebral cortex (Rattus norvegicus, UniProt P08482)
# T1 construct: displacement of ³H-pirenzepine from cerebral cortex homogenate; from tissue; host or cells: rat cerebral cortex homogenate
# T1 sequence (P08482 1-460): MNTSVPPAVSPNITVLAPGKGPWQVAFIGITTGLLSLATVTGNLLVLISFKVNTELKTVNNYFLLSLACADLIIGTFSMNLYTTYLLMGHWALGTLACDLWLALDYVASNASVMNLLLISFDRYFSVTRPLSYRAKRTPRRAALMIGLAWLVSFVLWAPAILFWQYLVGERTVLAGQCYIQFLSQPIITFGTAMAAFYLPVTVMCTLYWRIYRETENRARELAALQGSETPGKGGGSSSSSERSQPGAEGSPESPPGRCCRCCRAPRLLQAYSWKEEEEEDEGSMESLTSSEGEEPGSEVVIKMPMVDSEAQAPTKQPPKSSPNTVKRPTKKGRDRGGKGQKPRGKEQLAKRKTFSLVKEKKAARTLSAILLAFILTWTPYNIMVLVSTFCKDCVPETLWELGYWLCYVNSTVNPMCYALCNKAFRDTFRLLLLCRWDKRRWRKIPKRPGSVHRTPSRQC
# Assay: Antimuscarinic activity: in vitro binding, displacement of ³H-pirenzepine from cerebral cortex homogenate
# Parameters: species or system male CD-COOBBS rats
# Conditions: competition against 0.5 nM ³H-pirenzepine, 45 min at 30°C, KD from IC50 corrected for radioligand occupancy shift, read-out: Dissociation constants (KD) for ³H-pirenzepine binding
# Protocol: Antimuscarinic activity was examined by studying the displacement of ³H-pirenzepine from cerebral cortex homogenate according to the procedure reported below: The cerebral cortex donors were male CD-COOBBS rats, 220-250 g body weight. The homogenization process was carried out in a Potter-Evelhjem apparatus in the presence of Na⁺/Mg⁺⁺ HEPES buffer; pH 7.4 (100 mM NaCl, 10 mM MgCl₂, 20 mM HEPES), by filtering the suspension through two layers of cheesecloth.
# Binding curves for the under study compounds were derived indirectly from competition experiments against 0.5 nM ³H-pirenzepine labelling the muscarinic receptors of the cerebral cortex. 1 ml of the homogenate was incubated for 45 min at 30°C in the presence of a marker ligand and different concentrations of the cold ligand, conditions under which equilibrium was reached as determined by appropriate association experiments. The incubation was terminated by centrifugation (12,000 rpm for 3 min) at room temperature using an Eppendorf microcentrifuge. The resultant pellet was washed twice with 1.5 ml saline to remove the free radioactivity and it was allowed to drain for some hours. The tips of the tubes containing the pellet were cut off and 200 µl of tissue solubilizer (Lumasolve, Lumac) were added and left to stand overnight. Radioactivity was then counted after addition of 4 ml of liquid scintillation mixture (Dimilume/Toluene 1:10 v:v, Packard)
# Assays were carried out in triplicate or quadruplicate and the non-specific binding was defined as the radioactivity bound or entrapped in the pellet when the incubation medium contained 1 µM atropine sulphate. Non-specific binding avaraged less than 30%. KD values (dissociation constants) were obtained by non-linear regression analysis on the basis of a one binding site model with TOPFIT-pharmacokinetic programme package (G. HEINZEL, "Pharmacokinetics during drug development: data analysis and evaluation techniques" Eds. G. BOLZER and J.M. VAN ROSSUM; p. 207, G. Fisher, New York, 1982) after correction for the radioligand occupancy shift according to the equation: KD = IC₅₀/1 + *C/*KD, where *C and *KD represent the concentration and the dissociation constant of the radioligand used, respectively.
row,SMILES,Kd [nM]
1,"N=C(N)N1CCN(CC(=O)N2c3ccccc3NC(=O)c3ccccc32)CC1 [Compound 3, 5,10-dihydro-5-[2-(4-guanyl-piperazin-1-yl)-acetyl]-11H-dibenzo [b,e] [1,4]-diazepin-11-one]",6
2,"N=C(N)N1C2CCC1CC(CC(=O)N1c3ccccc3NC(=O)c3cscc31)C2 (stereo not drawn) [Compound 19, 4,9-dihydro-4-[2-(8-guanyl-8-azabicyclo[3.2.1]-octan-3-yl)-acetyl]-10H-thieno[3,4-b] [1,5]-benzodiazepin-10-one]",4
3,"N=C(N)N1CCC(CC(=O)N2c3ccccc3NC(=O)c3ccccc32)CC1 [Compound 20, 5,10-dihydro-5-[2-(1-guanyl-piperidin-4-yl)-acetyl]-11H-dibenzo b,e [1,4]-diazepin-11-one]",3.2
4,"N=C(N)N1CCCC(CC(=O)N2c3ccccc3NC(=O)c3ccccc32)C1 (stereo not drawn) [Compound 26, 5,10-dihydro-5-[2-(1-guanyl-piperidin-3-yl)-acetyl]-11H-dibenzo [b,e] [1,4]-diazepin-11-one]",9
5,"N=C(N)N1CCC(OC(=O)C2c3ccccc3NC(=O)c3ccccc32)CC1 (stereo not drawn) [Compound 31, 5,6-dihydro-11-[(1-guanyl-4-piperidinyl)-oxycarbonyl]-11H-dibenz[b,e]-azepin-6-one]",7.7
6,"CC(=N)N1CCC(CC(=O)N2c3ccccc3NC(=O)c3ccccc32)CC1 [Compound 60, 5,10-dihydro-5-[2-(1-α-iminoethyl-piperidin-h-yl)-acetyl]-11H-dibenzo[b,e] [1,4]-diazepin-11-one]",2.7
7,"CC(=N)N1CCCC(CC(=O)N2c3ccccc3NC(=O)c3ccccc32)C1 (stereo not drawn) [Compound 61, 5,10-dihydro-5-[2-(1-α-iminoethyl - piperidin-3-yl)-acetyl]-11H-dibenzo[b,e] [1,4]-diazepin-11-one]",5
8,"O=C1Nc2cccnc2N(C(=O)CCN2C=NCCC2)c2ccccc21 [Compound 82, 5,11-dihydro-11-[3-(1,4,5,6-tetrahydropirimidin-1-yl)-propionyl]-6H-pyrido[2,3-b] [1,5]-benzodiazepin-6-one]",10
9,"O=C1Nc2ccccc2N(C(=O)CCN2C=NCCC2)c2cscc21 [Compound 83, 4,9-dihydro-4-[3-(1,4,5,6-tetrahydropirimidin-1-yl)-propionyl]-10H-thieno[3,4-b] [1,5]-benzodiazepin-10-one]",7
10,"CC1=NCCCN1CCC(=O)N1c2ccccc2C(=O)Nc2cccnc21 [Compound 85, 5,11-dihydro-11-[3-(2-methyl-1,4,5,6-tetrahydropirimidin-1-yl)-propionyl]-6H-pyrido[2,3-b] [1,4]-benzodiazepin-6-one]",5

# Results, then the compound that gave them:
row,Kd [nM],SMILES
1,8,"CC(=N)N1CCCC(C(=O)N2c3ccccc3NC(=O)c3ccccc32)C1 (stereo not drawn) [Compound 62, 5,10-dihydro-5-[(1-α-iminoethyl-piperidin-3-yl)-carbonyl]-11H-dibenzo[b,e] [1,4]-diazepin-11-one]"
2,4,O=C1Nc2ccccc2N(C(=O)CC2CCN(C3=NCCN3)CC2)c2ccccc21 [Compound 72]
3,5,"CNC(=N)C1CCCN(CC(=O)N2c3ccccc3NC(=O)c3ccccc32)C1 (stereo not drawn) [Compound 78, 5,10-dihydro-5-[2-(3-N-methylguanyl-piperidin-1-yl)-acetyl]-11H-dibenzo[b,e] [1,4]-diazepin-11-one]"
4,10,"O=C1Nc2ccccc2N(C(=O)CCN2C=NCCC2)c2ccccc21 [Compound 81, 5,10-dihydro-5-[3-(1,4,5,6-tetrahydropirimidin-1-yl)-propionyl]-11H-dibenzo[b,e] [1,4]-diazepin-11-one]"
5,2.5,"CC1=NCCCN1CCC(=O)N1c2ccccc2NC(=O)c2ccccc21 [Compound 84, 5,10-dihydro-5-[3-(2-methyl-1,4,5,6-tetrahydropirimidin-1-yl)-propionyl]-11H-dibenzo[b,e] [1,4]-diazepin-11-one]"
